One series concerns RPMI-8226. Put plainly: cells. Particulars: Homo sapiens, RPMI-8226, 72 h.
Series [1] concerns the target T1, Farnesyl pyrophosphate synthase (Homo sapiens) (UniProt P14324).
T1 sequence (whole entry): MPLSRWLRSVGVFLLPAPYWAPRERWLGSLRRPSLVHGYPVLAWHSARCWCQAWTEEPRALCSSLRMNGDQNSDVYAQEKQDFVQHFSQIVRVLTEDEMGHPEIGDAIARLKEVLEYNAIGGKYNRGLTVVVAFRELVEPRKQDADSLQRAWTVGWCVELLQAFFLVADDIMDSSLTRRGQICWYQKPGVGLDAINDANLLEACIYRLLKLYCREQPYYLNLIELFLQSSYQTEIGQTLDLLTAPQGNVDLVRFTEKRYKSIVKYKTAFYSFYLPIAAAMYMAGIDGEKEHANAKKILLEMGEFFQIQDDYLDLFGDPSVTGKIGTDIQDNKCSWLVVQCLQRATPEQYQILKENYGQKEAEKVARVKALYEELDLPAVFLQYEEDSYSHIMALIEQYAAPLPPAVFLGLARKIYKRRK
As to the kind of experiment: Inhibition of human FPPS expressed in Escherichia coli BL21 (DE3) at 1 uM preincubated for 10 mins in presence compound relative to control.

Series [2] concerns the target T2, Geranylgeranyl pyrophosphate synthase (Homo sapiens, UniProt O95749).
T2 sequence (O95749 whole entry): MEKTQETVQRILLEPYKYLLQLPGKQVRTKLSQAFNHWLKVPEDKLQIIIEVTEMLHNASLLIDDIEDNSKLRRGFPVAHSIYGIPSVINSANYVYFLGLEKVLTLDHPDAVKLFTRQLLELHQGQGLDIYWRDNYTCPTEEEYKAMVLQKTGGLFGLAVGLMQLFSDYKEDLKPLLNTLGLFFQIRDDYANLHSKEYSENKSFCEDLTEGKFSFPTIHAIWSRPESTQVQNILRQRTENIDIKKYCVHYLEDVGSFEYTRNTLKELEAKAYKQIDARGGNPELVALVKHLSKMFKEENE

Series [3] has as its target T3, Farnesyl pyrophosphate synthase (Homo sapiens, UniProt P14324).
T3 sequence (P14324 whole entry): T1 sequence (whole entry)

The next series is described as follows: in vitro. Particulars: human, bone marrow mononuclear cells.

pEC50, pIC50: −log10 of the molar value. A value given as a limit tells only on which side of the number the result lay.

26 compounds from ChEMBL document CHEMBL5046266, “Synthesis and Evaluation of Structurally Diverse C-2-Substituted Thienopyrimidine-Based Inhibitors of the Human Geranylgeranyl Pyrophosphate Synthase” (J Med Chem, 2022) can be followed below.

On to `O=C(Cc1cccnc1)Nc1cccc(-c2nc(NC(P(=O)(O)O)P(=O)(O)O)c3ccsc3n2)c1`, for which, in the series with RPMI-8226, the pEC50 (usually the negative decadic logarithm of the EC50, by convention in mol/L) is 5.92. For the same compound, the inhibition – broadly, the relative decrease from the control value, in per cent – in series [1] is 60%. Moreover, the negative logarithm of the IC50 (pIC50) (as a rule, the negative decadic logarithm of the IC50, by convention in mol/L) in series [2] was 7.15.

`COc1ccc(NC(=O)Nc2cccc(-c3nc(NC(P(=O)(O)O)P(=O)(O)O)c4ccsc4n3)c2)cc1F`: in the series with RPMI-8226, the negative-log EC50 (pEC50) was 5.89. This compound also had a pIC50 in series [2] of 7.47.

Compound `O=C(Nc1ccc(F)cc1)Nc1cccc(-c2nc(NC(P(=O)(O)O)P(=O)(O)O)c3ccsc3n2)c1` gave a pEC50 in the series with RPMI-8226 of 5.39. The inhibition in series [1] was 90%. The compound further gave a pIC50 in series [2] of 7.39.

Regarding `O=C(Nc1cccc(-c2nc(NC(P(=O)(O)O)P(=O)(O)O)c3ccsc3n2)c1)c1ccc(F)cc1`, the inhibition in series [1] worked out at 30%. In series [2], this compound showed a negative logarithm of the IC50 (pIC50) of 7.60.

In the case of `O=P(O)(O)C(Nc1nc(-c2ccccc2)nc2sccc12)P(=O)(O)O`, in the series with RPMI-8226, the negative-log EC50 (pEC50) was less than 5.00. The pIC50 in series [2] was 7.43.

`CO[C@@H](C(=O)Nc1cccc(-c2nc(NC(P(=O)(O)O)P(=O)(O)O)c3ccsc3n2)c1)c1ccccc1`: the negative logarithm of the EC50 (pEC50) with RPMI-8226 is 6.04. Further, in series [1], the inhibition was found to be 48%. In series [2], this compound had a pIC50 of 7.41.

As to `COc1ccc([C@@H](OC(C)C)C(=O)Nc2cccc(-c3nc(NC(P(=O)(O)O)P(=O)(O)O)c4ccsc4n3)c2)cc1F`, the pIC50 was 6.14 in series [3] and 7.70 in series [2]. Besides, the pEC50 in the series on RPMI-8226 was less than 5.30.

Compound `COc1ccc(S(=O)(=O)Nc2cccc(-c3nc(NC(P(=O)(O)O)P(=O)(O)O)c4ccsc4n3)c2)cc1F` had a negative-log EC50 (pEC50) in the series on RPMI-8226 of 5.33. The compound further came in with an inhibition in series [1] of 40%. For the same compound, the negative-log IC50 (pIC50) in series [2] was 7.62.

In the case of `O=C(Nc1cccc(-c2nc(NC(P(=O)(O)O)P(=O)(O)O)c3ccsc3n2)c1)c1ccc(C(F)(F)F)cn1`, in the series on RPMI-8226, the pEC50 was 4.67. The same compound returned an inhibition in series [1] of 60%. In series [2], the negative-log IC50 (pIC50) is 7.28.

For the compound `CC(C)C[C@H](NC(=O)[C@H](Cc1ccccc1)NC(=O)c1cnccn1)B(O)O` [BORTEZOMIB], in “in vitro”, the viability (in general, a read-out of living cells in per cent, often relative to untreated cells) at 72 h, 0.05 µM was 40.1%.

In the series with RPMI-8226, `Cc1ccc(NC(=O)c2cccc(-c3nc(NC(P(=O)(O)O)P(=O)(O)O)c4ccsc4n3)c2)cc1F` showed a pEC50 of 6.89. The inhibition in series [1] came to 28%. This compound gave a pIC50 in series [2] of 7.51.

As for `CC(C)O[C@@H](C(=O)Nc1cccc(-c2nc(NC(P(=O)(O)O)P(=O)(O)O)c3ccsc3n2)c1)c1ccccc1`, in the series on RPMI-8226, the negative-log EC50 (pEC50) is 6.04. Moreover, the pIC50 in series [2] is 7.64.

Compound `COc1ccc(C(=O)Nc2cccc(-c3nc(NC(P(=O)(O)O)P(=O)(O)O)c4ccsc4n3)c2)cc1F` gave a negative-log EC50 (pEC50) in the series on RPMI-8226 of 6.34. The compound further came in with an inhibition in series [1] of 60%. The compound also showed a negative logarithm of the IC50 (pIC50) in series [2] of 7.54.

`COc1ccc([C@H](OC(C)C)C(=O)Nc2cccc(-c3nc(NC(P(=O)(O)O)P(=O)(O)O)c4ccsc4n3)c2)cc1F`: the values for the pIC50 in series [3] and in series [2] were 6.34 and 7.77, respectively. The compound further showed a pEC50 in the series with RPMI-8226 of 6.06.

Consider `CO[C@H](C(=O)Nc1cccc(-c2nc(NC(P(=O)(O)O)P(=O)(O)O)c3ccsc3n2)c1)c1ccccc1`, for which the pEC50 in the series on RPMI-8226 was 6.41. This compound also displayed an inhibition in series [1] of 55%. Besides, in series [2], the negative-log IC50 (pIC50) was 7.42.

`O=C(Nc1cccc(-c2nc(NC(P(=O)(O)O)P(=O)(O)O)c3ccsc3n2)c1)c1ccccc1` gave a pEC50 with RPMI-8226 of less than 6.30. For the same compound, in series [1], the inhibition came out at 40%. In series [2], this compound gave a pIC50 of 7.72.

Turning to `CC(C)O[C@H](C(=O)Nc1cccc(-c2nc(NC(P(=O)(O)O)P(=O)(O)O)c3ccsc3n2)c1)c1ccccc1`, the pEC50 with RPMI-8226 was 6.87. For the same compound, in series [1], the inhibition came to 35%. Also, in series [2], the pIC50 is 7.68.

In the series with RPMI-8226, `Cc1ccc(S(=O)(=O)Nc2cccc(-c3nc(NC(P(=O)(O)O)P(=O)(O)O)c4ccsc4n3)c2)cc1F` had a pEC50 of 5.11. In addition, the inhibition in series [1] came out at 30%. In addition, the pIC50 in series [2] is 7.64.

As for `Cc1ccc(NC(=O)c2cccc(-c3nc(NC(P(=O)(O)O)P(=O)(O)O)c4ccsc4n3)c2)cc1Br`, the pEC50 in the series on RPMI-8226 was 6.79. The same compound returned an inhibition in series [1] of 12%. Also, the negative-log IC50 (pIC50) in series [2] was 7.82.

As to `CC(C)C[C@H](NC(=O)[C@H](CCc1ccccc1)NC(=O)CN1CCOCC1)C(=O)N[C@@H](Cc1ccccc1)C(=O)N[C@@H](CC(C)C)C(=O)[C@@]1(C)CO1` [CARFILZOMIB], the viability at 72 h, 0.05 µM in “in vitro” was determined as 43.6%.

Compound `Cc1ccc(C(=O)Nc2cccc(-c3nc(NC(P(=O)(O)O)P(=O)(O)O)c4ccsc4n3)c2)cc1F` showed a pEC50 in the series on RPMI-8226 of 6.54. In addition, the inhibition in series [1] worked out at 35%. Also, the pIC50 in series [2] is 7.68.

For `O=C(Nc1cccc(-c2nc(NC(P(=O)(O)O)P(=O)(O)O)c3ccsc3n2)c1)c1ccc(C(F)(F)F)cc1`, the negative logarithm of the EC50 (pEC50) in the series on RPMI-8226 is 6.15. The compound further registered an inhibition in series [1] of 40%. This compound gave a pIC50 in series [2] of 7.74.

In the series with RPMI-8226, `COc1ccc(C(=O)Nc2cccc(-c3nc(NC(P(=O)(O)O)P(=O)(O)O)c4ccsc4n3)c2)cc1Br` gave a negative logarithm of the EC50 (pEC50) of less than 6.30. The same compound yielded an inhibition in series [1] of 40%. Moreover, the pIC50 in series [2] was 7.44.

For `O=C(Nc1ccccc1)c1cccc(-c2nc(NC(P(=O)(O)O)P(=O)(O)O)c3ccsc3n2)c1`, the negative-log IC50 (pIC50) in series [2] was 7.39.

With `COc1ccc(NS(=O)(=O)c2cccc(-c3nc(NC(P(=O)(O)O)P(=O)(O)O)c4ccsc4n3)c2)cc1F`, the pEC50 with RPMI-8226 was 5.30. For the same compound, in series [1], the inhibition is 25%. Besides, in series [2], the pIC50 is 7.64.

`O=C(Cc1ccccc1)Nc1cccc(-c2nc(NC(P(=O)(O)O)P(=O)(O)O)c3ccsc3n2)c1` gave a negative logarithm of the EC50 (pEC50) with RPMI-8226 of 6.13. Further, in series [1], the inhibition turned out to be 55%. Further, the pIC50 in series [2] was 7.64.
